For data set [1] the following is noted: cited from earlier work; for oral absorption: taken orally.
Data set [2] deals with colonic cancer cells HCT116. Kind of data set: HCT116 colonic cancer xenograft in nude mice, two weeks of drug delivery (Embodiment 1): cancer volume and weight. The format is in vivo. Particulars: HCT116, ig, within 2 weeks, vs solvent group, FIG. 1-3. The source says: Nude mice were transplanted with colonic cancer cells HCT116; after the cancer volumes reached 200-300 mm3, the mice were randomly grouped, 8 pieces in each group; the mice were fed with drugs for two weeks. The drug delivery solution can be seen in Table 2 below: […]

The subject of data set [3] is dihydropyrimidine dehydrogenase (DPD). Particulars: cited from earlier work.
The conditions of data set [4]: cited from earlier work.

Turning to `O=c1[nH]cc(F)c(=O)[nH]1` [5-Fluorouracil (5-FU), 5-Fluorouracil], in data set [1] (in vivo), the t1/2 result is “absorption t1/210~20 min,”. For the same molecule, the oral absorption result in data set [1] is “Incomplete oral”.
For the molecule `CCCCCOC(=O)Nc1nc(=O)n([C@@H]2O[C@H](C)[C@@H](O)[C@H]2O)cc1F` [Capecitabine, 5′-deoxy-5-fluoro-N[(pentyloxy)carbonyl]cytidine], in data set [2], the “volume and weight of the cancer” value is “failed to reduce the volume and weight of the cancer”. Also, in data set [1] (after the drug is taken orally), the “5-FU concentration in the cancer tissues versus that in the blood” value was “is 100 times higher”. Further, the t1/2 result in data set [1] (in vivo) was “orally. t1/2 0.5~1.0 h”. In addition, in data set [1], the oral absorption result is reported as “Quickly absorbed by”.
For `Oc1cc(O)c(Cl)cn1` [Gimeracil (CDHP), 2,4-dyhydroxy-5-chloro pyridine], the “5-FU degradation inhibition effect relative to uracil” value in data set [3] is 180 times that of the uracil. For the same molecule, in data set [3] (reversible inhibitor of the DPD), the “DPD inhibiting effect relative to uracil” value is given as 180 times that of uracil. Moreover, the “anti-cancer activities when individually used” value in data set [4] was “no obvious anti-cancer activities”.
For `O=C(O)c1nc(=O)[nH]c(=O)[nH]1` [Oteracil potassium (OXO), Oteracil potassium], in data set [4], the “anti-cancer activities when individually used” value is recorded as “no obvious anti-cancer activities”.
Consider `O=c1[nH]c(=O)n(C2CCCO2)cc1F` (centres unmarked) [Tegafur (FT-207), 1-(etrahydro-2-furyl)-5-fluoro-2,4(1H,3H)-pyrimidinedione], for which, in data set [1] (in vivo), the lipid solubility result is listed as “tract. It has higher” and the t1/2 entry is “absorption t1/25 h”. For the same molecule, in data set [1], the oral absorption entry is reported as “Good oral”. Also, the “discharged in the original form along with the urine” value in data set [1] (within 24 h after drug delivery) is recorded as 23% is discharged.
